Results as given in patent US8614064B2, “Methods of diagnosing atherosclerosis by measuring ApoCI” (The Johns Hopkins University, priority 2003, dated 2013).

Legend:
ABC-A1 = experiment: Western measurement of ABC transporter ABCA1 level in AoSMC; assay type: cell-based, human; details: ApoCI-treated cells
Method: Confluent cultures of AoSMC were preincubated with serum-free medium for 30 min and then treated with ApoCI (2.5 μg/ml medium), HMS (58.8 μg apoA-I/ml medium and 6.2 μg ApoCI/ml medium), and C2-Ceramide (30 μM). At indicated time periods cells were harvested in PBS and pellets lysed in 10 mM HEPES buffer (pH 7.4) 5 mM EDTA, 0.25 mM EGTA, 50 mM NaF, 0.35 M sucrose, 0.1% Nonidet P-40 and protease inhibitors 2 μg/ml aprotinin, 10 μg/ml leupeptin, 5 μg/ml pepstatin, and 1 mM PMSF. Protein concentration was determined using BCA-kit (Pierce, Rockford, Ill.). 100 μg of protein was subjected to electrophoresis in denaturing conditions on 4-15% polyacrylamide gel and electro transferred onto nitrocellulose (BioRad, Rochester, N.Y.). After the transfer, membranes were blocked for 1 h at room temperature in TBS-T/5% milk. Western assay was performed using rabbit caveolin-I (1:1000), SR-BI (1:5000) or goat ABCA1 (1:1000) primary antibody (Santa Cruz Biotechnology, Santa Cruz, Calif.) and horseradish peroxidase-conjugated anti-rabbit or anti-goat antibody (Amersham Pharmacia Biotech, Piscataway, N.J.). Blots were developed using ECL^plus Western blotting detection reagents (Amersham Pharmacia Biotech) and were scanned by laser densitometry. The intensity of the signals were quantified with the ImageGuant program (Molecular Dynamic, Sunnyvale, Calif.).

[1] = biological target: T1, lecithin cholesterol acyl transferase (Homo sapiens, UniProt P04180); details: % of that of apoA-I; Soutar et al. 1975; cited from earlier work
T1 sequence (P04180 25-440): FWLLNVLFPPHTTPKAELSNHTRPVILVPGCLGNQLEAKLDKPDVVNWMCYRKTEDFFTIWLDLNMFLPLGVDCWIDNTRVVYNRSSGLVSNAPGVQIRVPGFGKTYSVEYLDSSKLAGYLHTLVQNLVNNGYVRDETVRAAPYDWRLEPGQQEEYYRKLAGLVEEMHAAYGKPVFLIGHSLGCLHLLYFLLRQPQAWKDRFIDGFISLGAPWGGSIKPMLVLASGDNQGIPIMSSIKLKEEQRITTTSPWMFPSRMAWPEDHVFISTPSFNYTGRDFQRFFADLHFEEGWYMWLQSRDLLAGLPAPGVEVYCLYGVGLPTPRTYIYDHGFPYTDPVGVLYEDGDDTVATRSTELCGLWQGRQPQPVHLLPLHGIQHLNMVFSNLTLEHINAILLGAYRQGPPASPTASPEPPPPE

Apolipoprotein C-I (TPDVSSALDKLKEFGNTLEDKARELISRIKQSELSAKMREWFSETFQKVKEKLKIDS; UniProt P02654 27-83, looked up) [ApoCI, 6.6-kDa single-chain plasma protein of 57 amino acids; purified human ApoCI purchased from Academy Bio-Medical Company]
cellular level of the ATP binding cassette (ABC-A1) protein (ABC-A1): transiently and significantly decreased
stimulation of lecithin cholesterol acyl transferase relative to apolipoprotein A-I [1]: ~80%
